pEC50: −log10 of the molar value.
Key:
[1] = tested on: KCa3.1 over KCa2 channels; conditions: first generation activators; ref Christophersen and Wulff, 2015; cited from earlier work
WT KCa3.1 [2] = target: T1, WT KCa3.1 (Homo sapiens, UniProt O15554+P0DP23); conditions: 100 µM EBIO; control current at 250 nM free Ca2+; wild type channel
[3] = tested on: S372 in KCa3.1 or the corresponding S632 residue in KCa2.3 to arginine; design: method as in Brown et al., 2017; conditions: ref Brown et al., 2017; cited from earlier work
KCa2.3 = tested on: KCa2.3; design: method as in Coleman et al., 2014; conditions: ref Coleman et al., 2014; read-out: Potency of KCa2.3 activation; cited from earlier work
KCa3.1 = conditions: cited from earlier work; for pEC50: ref Coleman et al., 2014, read-out: Potency of KCa3.1 activation
KCa2 = tested on: KCa2; design: method as in Coleman et al., 2014; conditions: ref Coleman et al., 2014; read-out: Potency of KCa2 activation; cited from earlier work
KCa2.2 = tested on: KCa2.2; design: method as in Sankaranarayanan et al., 2009; conditions: ref Sankaranarayanan et al., 2009; cited from earlier work
WT KCa3.1 [4] = target: T1, WT KCa3.1; assay: Inside-out patch-clamp calcium concentration-response; type: cell-based; design: expressed in transfected cells; host or cells: CHO cells, transient transfection
Description: (§1) All experiments were performed in either the inside-out or the whole-cell configuration of the patch-clamp technique on either transiently transfected CHO cells or Human Embryonic Kidney (HEK) cell lines stably expressing hKCa3.1 or hKCa2.2 ([Sankaranarayanan et al., 2009]). All cells were cultured in Dulbecco’s modified Eagle’s medium supplemented with 10% fetal calf serum. […]
(§2) For manual whole-cell experiments, the extracellular solution contained 160 mM NaCl, 4.5 mM KCl, 2 mM CaCl2, 1 mM MgCl2, and 10 mM HEPES (pH 7.4, 300 mOsm). Solutions on the intracellular side contained 154 mM KCl, 10 mM HEPES, 10 mM EGTA, 1.75 mM MgCl2, and 5.9 mM CaCl2 for a calculated free Ca^2+ concentration of 250 nM (pH 7.2, 290 mOsm). […] Intracellular solutions contained 154 mM KCl, 10 mM HEPES, 10 mM EGTA, 1.75 mM MgCl2, and varying amounts of CaCl2 for calculated free Ca^2+ concentrations of […] (pH 7.2, 280–300 mOsm). Free Ca^2+ concentrations were calculated using the July 3, 2009 online version of MaxChelator (https://somapp.ucdmc.ucdavis.edu/pharmacology/bers/maxchelator/webmaxc/webmaxcS.htm) assuming a temperature of 25°C, a pH of 7.2, and an ionic strength of 160 mM. […]

[5] = target: T2, KCa3.1 S181A-L185A double mutant (Homo sapiens, UniProt O15554+P0DP23, L185A/S181A); assay: as above; type: cell-based
T2 construct: expressed in transfected cells; host or cells: CHO cells, transient transfection
Description: as §1, §2

For `CCn1c(=O)[nH]c2ccccc21` [EBIO], the “Selectivity for KCa3.1 over KCa2 channels” value (“Selectivity” below) [1] is given as 5–10 fold, the “Increase of control current” value (WT KCa3.1 [2]) is given as 5–10 fold and the “Change of activator potency by S372R (KCa3.1) / S632R (KCa2.3) mutation” value [3] is given as “strong reduction in potency”.
For `Nc1nc(-c2cccc3ccccc23)cs1` [SKA-75], the pEC50 (KCa2.3) is given as about 4.52 and the pEC50 (KCa3.1) is given as about 4.52.
In the case of `Cc1nc2c(ccc3ccccc32)s1` [SKA-74, 2-methylnaphtho[1,2-d]thiazole], the pEC50 (KCa2) is given as about 4.52 and the pEC50 (KCa3.1) is given as about 4.52.
For `Nc1nc(-c2ccc3ccccc3c2)cs1` [SKA-76], the pEC50 (KCa2.3) is listed as about 4.60 and the pEC50 (KCa3.1) is listed as about 4.30.
In the case of `Nc1nc2c(ccc3ccccc32)s1` [SKA-31, Naphtho[1,2-d]thiazol-2-ylamine], the “Selectivity” value [1] is given as 5–10 fold, the “Activation of KCa3.1 at 10 µM” value (KCa3.1; 10 µM, ref Sankaranarayanan et al., 2009) is given as “maximally activates” and the “Activation of KCa2.2 at 10 µM” value (KCa2.2) is given as “maximally activates”.
In the case of `O=C1Nc2c(ccc(Cl)c2Cl)C1=NO` [NS309, 6,7-dichloro-1H-indole-2,3-dione 3-oxime], the “Selectivity” value [1] is given as 5–10 fold and the “Change of activator potency by S372R (KCa3.1) / S632R (KCa2.3) mutation” value [3] is given as “strong reduction in potency”.
`[Ca]` [calcium] gave a pEC50 (WT KCa3.1 [4]) of 6.36, a nH calcium concentration-response (WT KCa3.1 [4]) of 1.98 and a pEC50 [5] of 6.41. For the same compound, the nH calcium concentration-response [5] was 1.39.
